Reference: PubChem BioAssay (NCI)
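1) Cells in 96-well plates. 2) Compound, 48 h, 5 concentrations. 3) Linear interpolation between surrounding doses. 4) Unreached endpoint = highest concentration. TGI denotes the concentration required for complete inhibition of growth.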

Key:
Assay in all cases: DTP human tumour cell line panel, 48 h
[1] = system: 786-0 renal
[2] = system: BT-549 breast
[3] = system: CAKI-1 renal
[4] = system: CCRF-CEM leukemia
[5] = system: DU-145 prostate
[6] = system: HL-60(TB) leukemia
[7] = system: MDA-MB-231 breast
[8] = system: MDA-MB-435
[9] = system: MDA-N
[10] = system: NCI-H23 lung
[11] = system: OVCAR-3 ovarian
[12] = system: OVCAR-4 ovarian
[13] = system: PC-3 prostate
[14] = system: RXF 393 renal
[15] = system: SF-268 CNS
[16] = system: SF-295 CNS
[17] = system: SF-539 CNS
[18] = system: SK-MEL-28 melanoma
[19] = system: SK-MEL-5 melanoma
[20] = system: SW-620 colon

CCN(CC)c1c(N(CC)CC)c(=O)c1=O
TGI [1]: 16.2 µM | TGI [2]: 35.8 µM | TGI [3]: 9.62 µM | TGI [4]: 18.9 µM | TGI [5]: 23.3 µM | TGI [6]: 7.58 µM | TGI [7]: 15.8 µM | TGI [8]: 60.9 µM | TGI [9]: 32.1 µM | TGI [10]: 26.7 µM | TGI [11]: 25.1 µM | TGI [12]: 46.3 µM | TGI [13]: 46.4 µM | TGI [14]: 25.2 µM | TGI [15]: > 77 µM | TGI [16]: > 100 µM | TGI [17]: 19 µM | TGI [18]: 41.9 µM | TGI [19]: 35.2 µM | TGI [20]: 20.1 µM

C=C(C)C(CC=C(C)C)CC12CC(CC=C(C)C)C(C)(C)C(CC=C(C)C)(C(=O)C(Cc3ccc(O)c(O)c3)=C1O)C2=O (centres undefined)
TGI [1]: > 100 µM | TGI [2]: > 100 µM | TGI [3]: > 100 µM | TGI [4]: > 100 µM | TGI [5]: > 100 µM | TGI [6]: > 100 µM | TGI [7]: > 100 µM | TGI [8]: > 100 µM | TGI [9]: > 100 µM | TGI [10]: > 100 µM | TGI [11]: > 100 µM | TGI [12]: > 100 µM | TGI [13]: > 100 µM | TGI [14]: > 100 µM | TGI [15]: > 100 µM | TGI [16]: > 100 µM | TGI [17]: > 100 µM | TGI [18]: > 100 µM | TGI [19]: > 100 µM | TGI [20]: > 100 µM

COc1ccc2nc3ccc(OC)cc3c(S(=O)CCCl)c2c1 (centres undefined)
TGI [1]: 3.34 µM | TGI [2]: 30.3 µM | TGI [3]: 6.9 µM | TGI [4]: > 23.8 µM | TGI [5]: 4.66 µM | TGI [6]: 6.86 µM | TGI [7]: 11.8 µM | TGI [8]: 17.1 µM | TGI [9]: 7.58 µM | TGI [10]: 36.1 µM | TGI [11]: 6.24 µM | TGI [12]: 16.4 µM | TGI [13]: 23.4 µM | TGI [14]: 16.2 µM | TGI [15]: 28.2 µM | TGI [16]: 45.2 µM | TGI [17]: 4.59 µM | TGI [18]: 12.4 µM | TGI [19]: 28.2 µM

CCn1c(-c2cc(OC)cc(OC)c2)nc2c1C(=O)c1ccccc1C2=O
TGI [1]: > 100 µM | TGI [2]: > 100 µM | TGI [4]: > 100 µM | TGI [5]: > 100 µM | TGI [6]: > 100 µM | TGI [7]: > 100 µM | TGI [8]: > 100 µM | TGI [9]: > 100 µM | TGI [10]: > 100 µM | TGI [11]: > 100 µM | TGI [12]: > 100 µM | TGI [13]: > 100 µM | TGI [14]: 69.2 µM | TGI [15]: > 100 µM | TGI [16]: > 100 µM | TGI [17]: > 100 µM | TGI [18]: > 100 µM | TGI [19]: > 100 µM | TGI [20]: > 100 µM

Cc1cc(C)c(S(=O)(=O)N2CCCN(S(=O)(=O)c3c(C)cc(C)cc3C)OCCCON(S(=O)(=O)c3c(C)cc(C)cc3C)CCCN(S(=O)(=O)c3c(C)cc(C)cc3C)OCCCO2)c(C)c1
TGI [1]: > 100 µM | TGI [2]: > 100 µM | TGI [3]: > 100 µM | TGI [4]: > 100 µM | TGI [5]: > 100 µM | TGI [6]: > 100 µM | TGI [7]: > 100 µM | TGI [8]: > 100 µM | TGI [9]: > 100 µM | TGI [10]: > 100 µM | TGI [11]: > 100 µM | TGI [12]: > 100 µM | TGI [13]: > 100 µM | TGI [14]: > 100 µM | TGI [15]: > 100 µM | TGI [16]: > 100 µM | TGI [17]: > 100 µM | TGI [18]: > 100 µM | TGI [19]: > 100 µM | TGI [20]: > 100 µM

COc1cc(/C=C2\CCC(C)C3C2=NN(C(C)=O)C3c2cc(OC)c(OC)c(OC)c2)cc(OC)c1OC (centres undefined)
TGI [1]: > 100 µM | TGI [2]: > 100 µM | TGI [3]: > 100 µM | TGI [4]: > 100 µM | TGI [5]: > 100 µM | TGI [6]: > 100 µM | TGI [7]: > 100 µM | TGI [8]: > 100 µM | TGI [9]: > 100 µM | TGI [10]: > 100 µM | TGI [11]: > 100 µM | TGI [12]: > 100 µM | TGI [13]: > 100 µM | TGI [14]: > 100 µM | TGI [15]: > 100 µM | TGI [16]: > 100 µM | TGI [17]: > 100 µM | TGI [18]: > 51.2 µM | TGI [19]: > 100 µM | TGI [20]: > 100 µM

C=C1C[C@@H]2O[C@H]3[C@H]4[C@@H](C[C@@H](C)[C@@H](OC(C)=O)[C@H]42)[C@@H](C)CO[C@@]3(C)[C@H](OC(C)=O)C[C@H]1O
TGI [1]: > 100 µM | TGI [2]: > 100 µM | TGI [3]: > 100 µM | TGI [4]: 49.5 µM | TGI [5]: > 100 µM | TGI [6]: 36.8 µM | TGI [7]: > 100 µM | TGI [8]: > 100 µM | TGI [9]: > 100 µM | TGI [10]: > 100 µM | TGI [11]: > 100 µM | TGI [12]: > 100 µM | TGI [13]: > 100 µM | TGI [14]: > 100 µM | TGI [15]: > 100 µM | TGI [16]: > 100 µM | TGI [17]: > 100 µM | TGI [18]: > 100 µM | TGI [19]: > 100 µM | TGI [20]: > 100 µM

COc1ccc(CC2c3cc(Oc4cc(CC5c6cc(OC)c(OC)cc6CCN5C)ccc4O)c(OC)cc3CCN2C)cc1 (centres undefined)
TGI [1]: 9.33 µM | TGI [2]: 13.4 µM | TGI [3]: 9.99 µM | TGI [4]: 1.57 µM | TGI [5]: 6.34 µM | TGI [6]: 15.5 µM | TGI [7]: 14.8 µM | TGI [8]: 9.88 µM | TGI [9]: 13.7 µM | TGI [10]: 15.4 µM | TGI [11]: 15.1 µM | TGI [12]: 8.77 µM | TGI [13]: 11.4 µM | TGI [14]: 12 µM | TGI [15]: 17 µM | TGI [16]: 15.4 µM | TGI [17]: 16.8 µM | TGI [18]: 15.1 µM | TGI [19]: 14.4 µM | TGI [20]: 7.29 µM

CC(C)(Cc1ccccc1)NC1=NCCO1
TGI [1]: > 100 µM | TGI [2]: > 100 µM | TGI [3]: > 100 µM | TGI [4]: > 100 µM | TGI [5]: > 100 µM | TGI [6]: > 100 µM | TGI [7]: > 100 µM | TGI [8]: > 100 µM | TGI [9]: > 100 µM | TGI [10]: > 100 µM | TGI [11]: > 100 µM | TGI [12]: > 100 µM | TGI [13]: > 100 µM | TGI [14]: > 100 µM | TGI [16]: > 100 µM | TGI [17]: > 100 µM | TGI [18]: > 100 µM | TGI [19]: > 100 µM | TGI [20]: > 100 µM

S=C(NCc1ccccc1)c1nc[nH]c1C(=S)NCc1ccccc1
TGI [1]: 18.8 µM | TGI [2]: 27.2 µM | TGI [3]: 18.7 µM | TGI [4]: 12.1 µM | TGI [5]: 21.6 µM | TGI [6]: 25.5 µM | TGI [7]: 22.3 µM | TGI [8]: 19.6 µM | TGI [9]: 23 µM | TGI [10]: 25.7 µM | TGI [11]: 18.8 µM | TGI [12]: 20 µM | TGI [13]: 20.4 µM | TGI [14]: 24.9 µM | TGI [15]: 19.8 µM | TGI [16]: 17.6 µM | TGI [17]: 23.2 µM | TGI [18]: 26.9 µM | TGI [20]: 20.8 µM

CC1(CCCO)CCCCCC(C)(CCCO)C1=O (centres undefined)
TGI [1]: > 100 µM | TGI [2]: > 100 µM | TGI [3]: > 100 µM | TGI [4]: > 100 µM | TGI [5]: > 100 µM | TGI [6]: > 100 µM | TGI [7]: > 100 µM | TGI [8]: > 100 µM | TGI [9]: > 100 µM | TGI [10]: > 100 µM | TGI [11]: > 100 µM | TGI [12]: > 100 µM | TGI [13]: > 100 µM | TGI [14]: > 100 µM | TGI [15]: > 100 µM | TGI [16]: > 100 µM | TGI [18]: > 100 µM | TGI [19]: > 100 µM | TGI [20]: > 100 µM

CN1C(=O)N/C(=C\c2ccc(S(=O)(=O)NN)cc2)C1=O
TGI [1]: > 100 µM | TGI [2]: > 100 µM | TGI [3]: > 100 µM | TGI [4]: > 100 µM | TGI [5]: > 100 µM | TGI [6]: > 100 µM | TGI [7]: > 100 µM | TGI [8]: > 100 µM | TGI [9]: > 100 µM | TGI [10]: > 100 µM | TGI [11]: > 100 µM | TGI [12]: > 100 µM | TGI [13]: > 100 µM | TGI [14]: > 100 µM | TGI [15]: > 100 µM | TGI [16]: > 100 µM | TGI [18]: > 100 µM | TGI [19]: > 100 µM | TGI [20]: > 100 µM
